Data as given in patent publication US12565504B2, “Spirocyclic O-glycoprotein-2-acetamido-2-deoxy-3-d-glucopyranosidase inhibitors” (BIOGEN MA INC., priority 2019, dated 2026).

Legend:
[1] = molecular target: Recombinant full length human OGA enzyme (Homo sapiens (Human), UniProt O60502); assay: OGA Enzyme Inhibition Biochemical Assay; settings: 1 nM OGA, 100 μM 4-MUGlcNAc, 90 minutes, pH 6.4
Procedure: Recombinant full length human OGA enzyme was purchased from Origene. 4-MUGlcNAc substrate was purchased from Sigma. All other reagents were purchased from Sigma or Fisher. Assay buffer consists of the McIlvaine buffer system, pH 6.4 (0.2M Na2HPO4 mixed with 0.1M citric acid) and 0.01% BSA. […] Reactions were incubated for 90 minutes at room temperature and quenched with 40 μl of 3M glycine, pH 10 and read on a Perkin Elmer Envision plate reader (Ex: 355 nm/Em: 460 nm). Compounds were tested with a 10-point dose-response starting from 20 μM with a 4-fold dilution. Data was fit using GraphPad Prism using a 4-parameter fit with variable slope.

OGA (S400 O-GLCNAC) = OGA (S400 O-GLCNAC) (Homo sapiens (Human), UniProt O60502); assay: Cellular OGA-Tau MSD Assay; type: cell-based; settings: HEK-293T cells transfected with OGT and Tau-V5; Tau-S400-GlcNAc MSD readout
OGA (S400 O-GLCNAC), sequence (O60502 whole entry): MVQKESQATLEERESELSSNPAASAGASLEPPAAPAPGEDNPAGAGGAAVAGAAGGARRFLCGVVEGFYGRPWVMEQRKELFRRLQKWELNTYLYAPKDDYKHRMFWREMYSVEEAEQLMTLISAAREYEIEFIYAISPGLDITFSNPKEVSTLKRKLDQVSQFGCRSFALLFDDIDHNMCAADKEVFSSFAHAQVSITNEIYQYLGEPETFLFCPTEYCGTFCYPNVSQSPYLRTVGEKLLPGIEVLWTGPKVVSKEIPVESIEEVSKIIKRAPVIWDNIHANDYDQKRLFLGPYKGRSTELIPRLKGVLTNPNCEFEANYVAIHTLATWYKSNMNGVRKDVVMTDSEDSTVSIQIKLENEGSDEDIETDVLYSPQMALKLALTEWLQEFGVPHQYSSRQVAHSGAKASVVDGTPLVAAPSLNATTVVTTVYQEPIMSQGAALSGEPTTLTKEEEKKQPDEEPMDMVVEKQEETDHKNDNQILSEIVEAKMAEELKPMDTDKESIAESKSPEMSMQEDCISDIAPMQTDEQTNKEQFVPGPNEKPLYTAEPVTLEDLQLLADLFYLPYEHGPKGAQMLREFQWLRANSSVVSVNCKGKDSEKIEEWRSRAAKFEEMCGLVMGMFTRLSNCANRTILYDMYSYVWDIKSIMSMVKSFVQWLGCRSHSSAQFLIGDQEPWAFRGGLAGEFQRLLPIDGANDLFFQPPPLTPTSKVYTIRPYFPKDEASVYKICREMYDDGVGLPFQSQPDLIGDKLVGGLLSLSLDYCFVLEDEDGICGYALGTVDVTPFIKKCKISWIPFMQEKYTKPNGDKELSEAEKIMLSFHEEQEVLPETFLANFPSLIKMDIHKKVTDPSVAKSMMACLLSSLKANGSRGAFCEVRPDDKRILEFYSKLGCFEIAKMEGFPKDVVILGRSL
Procedure: HEK-293T cells were transfected with OGT and Tau-V5 plasmids using Lipofectamine and grown overnight. Next day, the cells were collected and re-plated at 1×10^5 cells per well in 96 well plates. Cells were incubated for 4 hr at 37° C., before compounds were added at 1 uM, with 3-fold dilutions in a 10-point titration. Cell plates were incubated with compounds overnight at 37° C. The next day media was removed from wells by gentle aspiration and 120 ul of 1× Cell Lysis buffer mixed with protease and phosphatase cocktail added to each well. A freeze thaw was performed at −80° C., then mixed before transferring 50 μl to MSD plates coated with V5-tag antibody to capture Tau. MSD Plates were incubated overnight at 4° C., on a plate shaker. The following day, plates were washed and incubated with Tau-S400-GlcNAc antibody for 2 hr and then developed with rabbit Sulfo-tag antibody. Final read out was carried out on an MSD 600 reader. The data was analyzed using Graph Pad or Genedata, the data was normalized and % activity versus log of compound concentration was plotted. The ICso values were obtained from a 4 parameter fit.

Recombinant full length human OGA enzyme, sequence (O60502 whole entry): as above

Row | SMILES | IC50 [1] | IC50 (OGA (S400 O-GLCNAC))
1 | CC(=O)Nc1ncc(CN2C[C@]3(C[C@@H]2C)OCc2ccncc23)s1 [Example 71-b, N-(5-(((3R,5′S)-5′-methyl-1H-spiro[furo[3,4-c]pyridine-3,3′-pyrrolidin]-1′-yl)methyl)thiazol-2-yl)acetamide] | 260 nM | –
2 | CC(=O)Nc1ncc(CN2CCCC3(C2)OCc2c3ccnc2Cl)s1 (stereo not drawn) [Example 85, N-(5-((4-Chloro-3H-spiro[furo[3,4-c]pyridine-1,3′-piperidin]-1′-yl)methyl)thiazol-2-yl)acetamide] | 4.5 nM | 17 nM
3 | CC(=O)Nc1ncc(CN2CC3(C[C@@H]2C)OCc2cccnc23)s1 (stereo partly drawn) [Example 62, N-(5-(((5′S)-5′-Methyl-5H-spiro[furo[3,4-b]pyridine-7,3′-pyrrolidin]-1′-yl)methyl)thiazol-2-yl)acetamide] | 44 nM | 73 nM
4 | CC(=O)Nc1ncc(CN2C[C@@]3(Cc4cc(C(F)F)ncc4O3)C[C@@H]2C)s1 [Example 27, N-(5-(((2R,5′S)-5-(Difluoromethyl)-5′-methyl-3H-spiro[furo[2,3-c]pyridine-2,3′-pyrrolidin]-1′-yl)methyl)thiazol-2-yl)acetamide] | 11 nM | 16 nM
5 | CC(=O)Nc1nc(F)c(CN2C[C@@]3(Cc4cc(C)ncc4O3)C[C@@H]2C)s1 [Example 23, N-(5-(((2R,5′S)-5,5′-Dimethyl-3H-spiro[furo[2,3-c]pyridine-2,3′-pyrrolidin]-1′-yl)methyl)-4-fluorothiazol-2-yl)acetamide] | 1 nM | 13 nM
6 | CC(=O)Nc1nc(F)c(CN2C[C@@]3(C[C@@H]2C)OCc2ccncc23)s1 (single isomer, unassigned) [Example 72-a] | 30 nM | –
7 | CC(=O)Nc1nc(F)c(CN2CCC[C@]3(C2)OCc2c3ccnc2Cl)s1 [Example 84-b, (S)—N-(5-((4-chloro-3H-spiro[furo[3,4-c]pyridine-1,3′-piperidin]-1′-yl)methyl)-4-fluorothiazol-2-yl)acetamide] | 310 nM | > 1000 nM
8 | CC(=O)Nc1ncc(CN2CCCC3(C2)OCc2cncnc23)s1 (stereo not drawn) [Example 89, N-(5-((5H-Spiro[furo[3,4-d]pyrimidine-7,3′-piperidin]-1′-yl)methyl)thiazol-2-yl)acetamide] | 67.9 nM | 84.6 nM
9 | CC(=O)Nc1nc(F)c(CN2C[C@@]3(Cc4cc(N5CCC5)ncc4O3)C[C@@H]2C)s1 [Example 34, N-(5-(((2R,5′S)-5-(Azetidin-1-yl)-5′-methyl-3H-spiro[furo[2,3-c]pyridine-2,3′-pyrrolidin]-1′-yl)methyl)-4-fluorothiazol-2-yl)acetamide] | < 1 nM | 1 nM
10 | CC(=O)Nc1nc(F)c(CN2CCC3(Cc4cccnc4O3)C2)s1 (stereo not drawn) [Example 15, N-(5-((3H-Spiro[furo[2,3-b]pyridine-2,3′-pyrrolidin]-1′-yl)methyl)-4-fluorothiazol-2-yl)acetamide] | 1700 nM | –
11 | COc1cnc2c(n1)CC1(C[C@H](C)N(Cc3sc(NC(C)=O)nc3F)C1)O2 (stereo partly drawn) [Example 50, N-(4-Fluoro-5-(((5′S)-2-methoxy-5′-methyl-7H-spiro[furo[2,3-b]pyrazine-6,3′-pyrrolidin]-1′-yl)methyl)thiazol-2-yl)acetamide] | 2.3 nM | 9 nM
12 | CC(=O)Nc1ncc(CN2CCC3(Cc4cc(Cl)ccc4O3)C2)s1 (stereo not drawn) [Example 5, N-(5-((5-Chloro-3H-spiro[benzofuran-2,3′-pyrrolidin]-1′-yl)methyl)thiazol-2-yl)acetamide] | 150 nM | –
13 | CC(=O)Nc1nc(F)c(CN2CCC3(Cc4cnccc4O3)C2)s1 (stereo not drawn) [Example 12, N-(5-((3H-Spiro[furo[3,2-c]pyridine-2,3′-pyrrolidin]-1′-yl)methyl)-4-fluorothiazol-2-yl)acetamide] | 35 nM | 93 nM
14 | CC(=O)Nc1ncc(CN2CCC3(Cc4cnccc4O3)C2)s1 (stereo not drawn) [Example 13, N-(5-((3H-Spiro[furo[3,2-c]pyridine-2,3′-pyrrolidin]-1′-yl)methyl)thiazol-2-yl)acetamide] | 130 nM | 796 nM
15 | CC(=O)Nc1nc(F)c(CN2CCC[C@@]3(C2)OCc2cnccc23)s1 (single isomer, unassigned) [Example 70-a] | 1.4 nM | 8.4 nM
16 | COc1cc2c(cn1)O[C@]1(C2)C[C@H](C)N(Cc2cnc(NC(C)=O)s2)C1 [Example 17, N-(5-(((2R,5′S)-5-Methoxy-5′-methyl-3H-spiro[furo[2,3-c]pyridine-2,3′-pyrrolidin]-1′-yl)methyl)thiazol-2-yl)acetamide] | < 1 nM | 8 nM
17 | CC(=O)Nc1nc(F)c(CN2CCC3(Cc4ccncc4O3)C2)s1 (stereo not drawn) [Example 90, N-(5-((3H-spiro[furo[2,3-c]pyridine-2,3′-pyrrolidin]-1′-yl)methyl)-4-fluorothiazol-2-yl)acetamide] | 120 nM | –

Row | SMILES | IC50 [1] | IC50 (OGA (S400 O-GLCNAC))
18 | CC(=O)Nc1ncc(CN2CCCC3(C2)OCc2ccccc23)s1 (stereo not drawn) [Example 55, N-(5-((3H-Spiro[isobenzofuran-1,3′-piperidin]-1′-yl)methyl)thiazol-2-yl)acetamide] | 24.5 nM | 250 nM
19 | COc1ccc2c(n1)C[C@]1(C[C@H](C)N(Cc3sc(NC(C)=O)nc3F)C1)O2 [Example 20, N-(4-Fluoro-5-(((2S,5′S)-5-methoxy-5′-methyl-3H-spiro[furo[3,2-b]pyridine-2,3′-pyrrolidin]-1′-yl)methyl)thiazol-2-yl)acetamide] | < 1 nM | 4 nM
20 | CC(=O)Nc1nc(F)c(CN2CCCC3(C2)OCc2cncnc23)s1 (stereo not drawn) [Example 88, N-(5-((5H-Spiro[furo[3,4-d]pyrimidine-7,3′-piperidin]-1′-yl)methyl)-4-fluorothiazol-2-yl)acetamide] | 20.8 nM | 90.3 nM
21 | CC(=O)Nc1nc(F)c(CN2C[C@@]3(Cc4ccncc4O3)C[C@@H]2C)s1 [Example 9, N-(4-Fluoro-5-(((2R,5′S)-5′-methyl-3H-spiro[furo[2,3-c]pyridine-2,3′-pyrrolidin]-1′-yl)methyl)thiazol-2-yl)acetamide] | 1 nM | 12 nM
22 | CC(=O)Nc1ncc(CN2C[C@@]3(Cc4ccccc4O3)C[C@@H]2C)s1 [Example 2, N-(5-(((2R,5′S)-5′-Methyl-3H-spiro[benzofuran-2,3′-pyrrolidin]-1′-yl)methyl)thiazol-2-yl)acetamide] | 27 nM | 41 nM
23 | CC(=O)Nc1nc(F)c(CN2C[C@]3(C[C@@H]2C)OCc2cnccc23)s1 (single isomer, unassigned) [Example 64-b] | 170 nM | –
24 | CCOc1cc2c(cn1)O[C@]1(C2)C[C@H](C)N(Cc2sc(NC(C)=O)nc2F)C1 [Example 46, N-(5-(((2R,5′S)-5-Ethoxy-5′-methyl-3H-spiro[furo[2,3-c]pyridine-2,3′-pyrrolidin]-1′-yl)methyl)-4-fluorothiazol-2-yl)acetamide] | < 1 nM | 3 nM
25 | CC(=O)Nc1ncc(CN2C[C@@]3(C[C@@H]2C)OCc2ccncc23)s1 [Example 71-a, N-(5-(((3S,5′S)-5′-Methyl-1H-spiro[furo[3,4-c]pyridine-3,3′-pyrrolidin]-1′-yl)methyl)thiazol-2-yl)acetamide] | 150 nM | –
26 | CC(=O)Nc1ncc(CN2C[C@]3(C[C@@H]2C)OCc2cnccc23)s1 (single isomer, unassigned) [Example 65-b] | 440 nM | –
27 | CC(=O)Nc1nc(F)c(CN2CCC3(Cc4cc(Cl)ccc4O3)C2)s1 (stereo not drawn) [Example 6, N-(5-((5-Chloro-3H-spiro[benzofuran-2,3′-pyrrolidin]-1′-yl)methyl)-4-fluorothiazol-2-yl)acetamide] | 140 nM | –
28 | CC(=O)Nc1ncc(CN2CCC3(Cc4cccnc4O3)C2)s1 (stereo not drawn) [Example 14, N-(5-((3H-Spiro[furo[2,3-b]pyridine-2,3′-pyrrolidin]-1′-yl)methyl)thiazol-2-yl)acetamide] | 3800 nM | –
29 | COc1nccc2c1COC21C[C@H](C)N(Cc2sc(NC(C)=O)nc2F)C1 (stereo partly drawn) [Example 77, N-(4-Fluoro-5-(((5′S)-4-methoxy-5′-methyl-3H-spiro[furo[3,4-c]pyridine-1,3′-pyrrolidin]-1′-yl)methyl)thiazol-2-yl)acetamide] | – | 7 nM
30 | CC(=O)Nc1nc(F)c(CN2CCCC3(C2)OCc2cccnc23)s1 (stereo not drawn) [Example 61, N-(5-((5H-Spiro[furo[3,4-b]pyridine-7,3′-piperidin]-1′-yl)methyl)-4-fluorothiazol-2-yl)acetamide] | 29 nM | –
31 | CC(=O)Nc1ncc(CN2C[C@@]3(C[C@@H]2C)OCc2cnccc23)s1 (single isomer, unassigned) [Example 65-a] | 24 nM | –
32 | CC(=O)Nc1nc(F)c(CN2C[C@]3(C[C@@H]2C)OCc2ccncc23)s1 (single isomer, unassigned) [Example 72-b] | 110 nM | –
33 | CC(=O)Nc1nc(F)c(CN2CC3(C[C@@H]2C)OCc2ncccc23)s1 (stereo partly drawn) [Example 79, N-(4-Fluoro-5-(((5′S)-5′-methyl-7H-spiro[furo[3,4-b]pyridine-5,3′-pyrrolidin]-1′-yl)methyl)thiazol-2-yl)acetamide] | – | 5 nM
